Several values for one entry are separate records, joined by “and”; a condition that tells them apart may be missing. Identical values can stand only once. Entries after “also recorded” stand apart in the source; their conditions may differ.
Assays:
s.c. HeLa tumors = assay: Biodistribution study of Pt (ICP-OES); format: in vivo, mice
[1] = test system: supercoiled pBR322 plasmid DNA; assay: Ability to break DNA double strand (agarose gel electrophoresis); format: biochemical; details: 100 μM, 37 °C, 16 h
Description: Evaluation of the ability to break DNA double strand
by different species of Pt compounds. (a) Agarose gel electrophoresis of supercoiled
pBR322 plasmid DNA (10 ng/μL) after incubating with indicated conditions.
represents the linear DNA marker ladder (500-12000 bp); Lane i: DNA; Lane ii: DNA
+ GSH (2 mM); Lane iii: DNA + CDDP (100 μM); Lane iv: DNA + CDDP (100 μM)
+ GSH (2 mM); Lane v: DNA + P-CyPt (100 μM); Lane vi: DNA + P-CyPt (100 μM)
+ GSH (2 mM), Lane vii: DNA +P-CyPt (100 μM) + ALP (500 U/L), Lane viii: DNA
+P-CyPt (100 μM) + ALP (500 U/L) +GSH (2 mM); (b) Agarose gel electrophoresis
of supercoiled pBR322 plasmid DNA (20 ng/μL) after incubating with varying
concentrations of P-CyPt (0, 1, 2, 5, 10, 20, 50 and 100 μM) respectively) plus ALP
(500 U/L), followed by incubation with GSH (2 mM) in Tris buffer at 37 °C for 16 h.
One representative experiment out of two is shown.

[2] = Side toxicity in s.c. HeLa tumor-bearing mice (body weight, BUN, CRE, H&E)
[3] = Urine and faeces analysis by HPLC (mCy-containing compounds); format: in vivo, mice; design: mCy in urine: unit not given beside the values; details: for percentage excreted to the faeces (HPLC) / percentage excreted to the urine (HPLC): after i.v. P-CyPt
HeLa cells = assay: ICP-OES analysis of Pt in HeLa cells (uptake); format: cell-based; details: for Amount of Pt / Total amount of Pt: Supplementary Table S1
Description: Supplementary Table 1. ICP-OES analysis of Pt in HeLa cells. a Pt drugs Pt element per cell Percentage of Pt element […]
a HeLa cells were untreated or pre-treated with Na3VO4 (10 mM) for 20 min and then incubated with indicated Pt drug (10 μM) for 1 h. Then, the cells were trypsinized, collected, and the cell numbers were counted and digested with trace metal concentrated HNO3 (65~70%) and HCl (36~38%). The amount of Pt element was determined by […]
b Pt per cell represents the average amount of Pt element in one HeLa cell, which was calculated by dividing the total amount of Pt element in cells by the cell number. c Percentage of Pt taken up by cells was calculated by dividing the total amount of Pt elements in cells by the amount of Pt drugs added. Values denote mean ± s.d. (n = 3 independent experiments). […]
The cell […]
lysates were separated according to a reported fragmentation procedure to obtained different cell fractions: pellet sample N (nuclei) was separated by 600 g for 10 min; pellet sample L (lysosomes and mitochondria) separated by 15000 g for 5 min; pellet sample M (plasma membrane) separated 100000g for 60 min and the remaining supernatant was soluble portion cytoplasm named as cell pellet C (cytosol) Pellets N, L, and M were all re-dispersed in 200 μL of D.I. water. Then, the solutions were collected and dropped on a carbon-coated copper grid, followed by freeze-drying respectively. The samples were then examined in a JEM-2800 Transmission Electron […]
Quantitative analysis of Pt in HeLa cells and different subcellular organelles. HeLa […]
cells were seeded in 10-cm dishes at a density of 4×10^6 cells/well and allowed to grow overnight. The cells were incubated with P-CyPt (10 μM), PtIVNPs (10 μM) and CDDP (10 μM) for 1 h, respectively. In P-CyPt + Na3VO4 group, HeLa cells were first incubated with Na3VO4 (10 mM) for 20 min, and then incubated with P-CyPt (10 μM) for another 60 min. After being washed with PBS for three times, the cells were trypsinized, centrifuged and counted. For Pt distribution analysis, the cells were treated with P-CyPt (10 μM) or CDDP (10 μM) for 1 h, and then washed with PBS for three times, followed by incubation with fresh medium for another 24 h. After that, cells were washed gently with 2 mL PBS once. The cells were trypsinized, centrifuged and counted. The cell lysates were separated according to a reported fragmentation procedure to obtained different cell fractions, including N (nuclei), M (plasma membrane), L (lysosomes and mitochondria) and C (cytosol). The Cells and different cell fractions were digested with concentrated HNO3 (65~70%) and HCl (36~38%) at 90 °C for 24 h. The solution was diluted to 5 mL 2% HNO3 and 5% HCl solution, and the concentration of Pt element was measured by ICP-OES, which was further applied to calculate the amount of Pt in cells and subcellular organelles.
Flow cytometry analysis of HeLa cell death. Approximately 2×10^5 cells/well HeLa cells in 2 mL DMEM medium were seeded onto 6-well plates and allowed to grow overnight. The medium was replaced with 1 mL of fresh medium containing P-CyPt (20 μM), PtIVNPs (20 μM) and CDDP (20 μM), respectively. After 2 h incubation, medium was removed and cells were washed with PBS for three times. Then, cells were incubated with fresh medium for another 48 h to induce different levels of apoptosis.
After gentle washing with PBS (×1), the cells were detached from the plates with trypsin (500 μL per well), and the cell pellets were collected after centrifugation at […] at 4 °C for 4 min. After washing with PBS, the pellets were re-suspended in 500 μL PBS buffer and stained with the annexin V-FITC/PI double staining apoptosis detection kit for flow cytometry. All assays were performed according to the manufacturer instructions, and the cell population was analyzed by annexin V-FITC and PI channels. The count number for each flow cytometry analysis was ~5000 to […]

[4] = Time period 0-2 h, individual mice, matrix and injected agent not given
[5] = Time period 0-2 h, mean of 3 mice, matrix and injected agent not given
[6] = Time period 2-4 h, individual mice
[7] = Time period 2-4 h, mean of 3 mice
[8] = Time period 4-8 h, individual mice
[9] = Time period 4-8 h, mean of 3 mice
[10] = Time period 8-12 h, mean of 3 mice

CC1(C)C(/C=C/C2=C3Oc4cc(OP(=O)(O)O)c(Cl)cc4C=C3CCC2)=[N+](CCCNC(=O)[C@@H](Cc2ccccc2)NC(=O)[C@@H](Cc2ccccc2)NC(=O)CCC(=O)[O][Pt]([NH2])([NH2])([OH])([Cl])[Cl])c2ccccc21 [P-CyPt]
organ with the highest ID% g^−1 (s.c. HeLa tumors; 4 h post i.v. injection): tumors
ID% g^−1 of Pt in tumors (s.c. HeLa tumors; s.c. HeLa tumors, 4 h post i.v. (100 μM, 200 μL), ICP-OES): ~20.3%
effect on supercoiled pBR322 DNA ([1]; plus GSH (2 mM)): can significantly relax the supercoiled DNA
effect on supercoiled pBR322 DNA ([1]; without GSH): cannot bind to and break the DNA double strand
body weight during treatment ([2]; 2.25 mg kg^−1 Pt i.v. x5, 21 days): similar
increase of blood urea nitrogen (BUN) level ([2]; day 21): not obviously upregulated
increase of creatinine (CRE) level ([2]; day 21): not obviously upregulated
H&E staining of major organs (side toxicity) ([2]; day 21 after 5 doses of 2.25 mg kg^−1 Pt): all organs looked normal; also recorded: no apparent cell death
mCy in urine ([3]; Fig.6e, 0-2 h, mean of 3 mice): 12.76
mCy in urine ([3]; Fig.6e, 0-2 h, single mice): 12.5823 and 14.2325 and 11.4685
mCy in urine ([3]; Fig.6e, 2-4 h, mean of 3 mice): 12.43
mCy in urine ([3]; Fig.6e, 2-4 h, single mice): 12.5615 and 13.5939 and 11.1324
mCy in urine ([3]; Fig.6e, 4-8 h, mean of 3 mice): 12.56
mCy in urine ([3]; Fig.6e, 4-8 h, single mice): 12.5588 and 13.6118 and 11.5060
mCy in urine ([3]; Fig.6e, 8-12 h, mean of 3 mice): 7.02
mCy in urine ([3]; Fig.6e, 8-12 h, single mice): 7.0621 and 8.1416 and 5.8422
mCy in urine ([3]; Fig.6f, 0-2 h, mean of 3 mice): 0.53
mCy in urine ([3]; Fig.6f, 0-2 h, single mice): 0.4663 and 0.7332 and 0.3884
mCy in urine ([3]; Fig.6f, 2-4 h, mean of 3 mice): 6.03
mCy in urine ([3]; Fig.6f, 2-4 h, single mice): 6.1714 and 7.3564 and 4.5750
mCy in urine ([3]; Fig.6f, 4-8 h, mean of 3 mice): 21.29
mCy in urine ([3]; Fig.6f, 4-8 h, single mice): 22.9482 and 23.3466 and 17.5729
mCy in urine ([3]; Fig.6f, 8-12 h, mean of 3 mice): 9.19
mCy in urine ([3]; Fig.6f, 8-12 h, single mice): 7.4602 and 10.7840 and 9.3353
Compound found in excreta (%), Supplementary Table S5 [3, 4]: 11.1327% and 12.5928% and 10.1473%
Compound found in excreta (%), Supplementary Table S6 [3, 4]: 0.3965% and 0.6235% and 0.3303%
Compound found in excreta (%), Supplementary Table S5 [3, 5]: 11.29%
Compound found in excreta (%), Supplementary Table S6 [3, 5]: 0.45%
Compound found in excreta (%), Supplementary Table S5 [3, 6]: 5.17% and 5.5947% and 4.582%
Compound found in excreta (%), Supplementary Table S6 [3, 6]: 4.641% and 5.532% and 3.44%
Compound found in excreta (%), Supplementary Table S5 [3, 7]: 5.12%
Compound found in excreta (%), Supplementary Table S6 [3, 7]: 4.54%
Compound found in excreta (%), Supplementary Table S5 [3, 8]: 4.333% and 4.696% and 3.97%
Compound found in excreta (%), Supplementary Table S6 [3, 8]: 0.5705% and 0.5804% and 0.4369%
Compound found in excreta (%), Supplementary Table S5 [3, 9]: 4.33%
Compound found in excreta (%), Supplementary Table S6 [3, 9]: 0.53%
Compound found in excreta (%), Supplementary Table S5 [3, 10]: 1.41%
Compound found in excreta (%), Supplementary Table S6 [3, 10]: 0.06%
percentage excreted to the faeces (HPLC) ([3]; 2-4 h): 4.54± 1.05% and ~ 4.5%
percentage excreted to the urine (HPLC) ([3]; 2-4 h): 5.12 ± 0.51%
percentage excreted to the faeces (HPLC) ([3]; 4-8 h): 0.53 ± 0.080%
percentage excreted to the urine (HPLC) ([3]; 4-8 h): 4.33 ± 0.055%
percentage excreted to the faeces (HPLC) ([3]; 8-12 h): 0.059 ± 0.011%
percentage excreted to the urine (HPLC) ([3]; 8-12 h): 1.41 ± 0.23%
mCy-containing compounds excreted via hepatobiliary system ([3]; over 12 h, of injected dose): ~ 37.0%
mCy-containing compounds excreted via renal system ([3]; over 12 h, of injected dose): ~ 44.8%
Pt element per cell (HeLa cells; HeLa cells, Pt drug 10 μM, 1 h, ICP-OES): 24.60 ± 3.5 fmol/cell
Percentage of Pt element taken up by cells (HeLa cells; HeLa cells, Pt drug 10 μM, 1 h, of Pt drug added): 36.9 ± 5.3%
Amount of Pt (HeLa cells; individual samples): 20.8193 fmol/cell and 25.1404 fmol/cell and 27.8508 fmol/cell
Total amount of Pt (HeLa cells; individual samples): 31.255% and 37.742% and 41.811%
Amount of Pt (HeLa cells; mean of 3 samples): 24.6035 fmol/cell
Total amount of Pt (HeLa cells; mean of 3 samples): 36.936%
